Structures can show the parent of a compound that is named as a salt.
Molecular target: hROMK (hKir1.1) (Homo sapiens (Human), UniProt P48048)
Assay: Thallium Flux Assay (ROMK channel functional thallium flux, FLIPR-Tetra)
Format: cell-based
Conditions: HEK293 cells stably expressing hROMK (hKir1.1); unit not given in Table 4 (IC50 potencies less than 1 μM); read-out: ROMK TI IC50
Procedure: Cell Culture Conditions—HEK293 cells stably expressing hROMK (hKir1.1) were grown at 37° C. in a 10% CO2 humidified incubator in complete growth media: Dulbecco's Modified Eagle Medium supplemented with non-essential amino acids, Penicillin/Streptomycin/Glutamine, G418 and FBS. At >80% confluency, the media was aspirated from the flask and rinsed with 10 mL calcium/magnesium-free PBS. […] To dislodge the cell, the side of the flask was gently banged with one's hand. The cells completely titrated and then the cells were transferred to 25 mL complete media, centrifuged at 1,500 rpm for 6 min followed by resuspension in complete growth media and determine cell concentration. […] Under ideal growth conditions and appropriate tissue culture practices, this cell line is stable for 40-45 passages.
FluxOR Kit Components (Invitrogen F10017)
• FluxOR™ Reagent (Component A) • FluxOR™ Assay Buffer (Component B)—10× Concentrate • PowerLoad™ Concentrate (Component C)—100× Concentrate • Probenecid (Component D)—Lyophilized sample is kept at −20° C. Water soluble, 100× after solubilization in 1 mL water. […] Store at 4° C. • Thallium sulfate (Tl2SO4) Concentrate (Component G)—50 mM in water. […] Can be stored at room temperature • Stimulant Buffer (prepared at 5× final concentration in 1× FluxOR™Chloride-Free Buffer): 7.5 mM thallium sulfate and 0.75 mM potassium sulfate (to give a final assay concentration of 3 mM Thallium/0.3 mM potassium). Store at 4° C. when not in use. If kept sterile, this solution is good for months.
• 1. Seed HEK-hKir1.1 cells (50 μl at 20,000 cells/well) in 384-well PDL coated Microplates • 2. Allow cells to adhere overnight in humidified 37° C./10% CO2 incubator • 3. Completely remove cell growth media from microplate and replace with 25 μl loading buffer • 4. Incubate Microplate at room temperature, protected form light, for 90 min • 5. Remove loading buffer and replace with 25 μl 1× Assay Buffer±test compound. • 6. Incubate microplate at room temperature, protected from light, for 30 min • 7. […] Excitation=400 nm, Emission=460 & 580 nm. Collect data for ˜10 min.
Data Calculation—The fluorescence intensity of wells containing 3 μM of a standard control ROMK inhibitor of the present invention was used to define the ROMK-sensitive component of thallium flux. Fluorescence in the presence of test compounds was normalized to control values to provide % fluorescence change.

hROMK (hKir1.1), sequence (P48048 whole entry): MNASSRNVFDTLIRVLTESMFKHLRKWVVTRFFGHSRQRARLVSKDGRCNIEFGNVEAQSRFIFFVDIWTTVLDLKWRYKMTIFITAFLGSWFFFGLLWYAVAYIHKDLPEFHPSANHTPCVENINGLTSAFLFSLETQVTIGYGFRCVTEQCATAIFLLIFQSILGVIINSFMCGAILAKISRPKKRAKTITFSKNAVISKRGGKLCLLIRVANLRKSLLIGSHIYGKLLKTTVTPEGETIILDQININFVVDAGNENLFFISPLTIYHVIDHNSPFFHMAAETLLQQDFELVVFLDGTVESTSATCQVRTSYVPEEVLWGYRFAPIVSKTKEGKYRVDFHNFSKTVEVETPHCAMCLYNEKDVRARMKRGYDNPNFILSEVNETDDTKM

Row | Compound | IC50
1 | Cc1c([C@@H](O)CN2CCC3(CC2)CCN(c2ccc(S(C)(=O)=O)nc2)C3=O)ccc2c1COC2=O [Example 55, (R)-8-(2-Hydroxy-2-(4-methyl-1-oxo-1,3-dihydroisobenzofuran-5-yl)ethyl)-2-(6-(methylsulfonyl)pyridin-3-yl)-2,8-diazaspiro[4.5]decan-1-one] | 0.0851 µM
2 | Cc1c([C@H](O)CN2CCC3(CC2)CCN(c2ccc(S(C)(=O)=O)cn2)C3)ccc2c1COC2=O [Example 56, (S)-5-(1-Hydroxy-2-(2-(5-(methylsulfonyl)pyridin-2-yl)-2,8-diazaspiro[4.5]decan-8-yl)ethyl)-4-methylisobenzofuran-1(3H)-one] | 0.341 µM
3 | Cc1c([C@@H](O)CN2CCC3(CC2)CCN(c2ccc(S(C)(=O)=O)nn2)C3=O)ccc2c1COC2=O [Example 57, (R)-8-(2-Hydroxy-2-(4-methyl-1-oxo-1,3-dihydroisobenzofuran-5-yl)ethyl)-2-(6-(methylsulfonyl)pyridazin-3-yl)-2,8-diazaspiro[4.5]decan-1-one] | 0.0592 µM
4 | COc1cc(N2CCC3(CCN(C[C@H](O)c4ccc5c(c4C)COC5=O)CC3)C2=O)ncc1C#N [Example 58, (R)-6-(8-(2-Hydroxy-2-(4-methyl-1-oxo-1,3-dihydroisobenzofuran-5-yl)ethyl)-1-oxo-2,8-diazaspiro[4.5]decan-2-yl)-4-methoxynicotinonitrile] | 0.0494 µM
5 | COc1cc(N2CC3(CCN(C[C@H](O)c4ccc5c(c4C)COC5=O)CC3)CC2=O)ncc1C#N [Example 59, (R)-6-(8-(2-Hydroxy-2-(4-methyl-1-oxo-1,3-dihydroisobenzofuran-5-yl)ethyl)-3-oxo-2,8-diazaspiro[4.5]decan-2-yl)-4-methoxynicotinonitrile] | 0.0329 µM
6 | Cc1c([C@@H](O)CN2CCC3(CC2)CCN(c2ccnc(C#N)c2)C3)ccc2c1COC2=O [Example 60, (R)-4-(8-(2-Hydroxy-2-(4-methyl-1-oxo-1,3-dihydroisobenzofuran-5-yl)ethyl)-2,8-diazaspiro[4.5]decan-2-yl)picolinonitrile] | 0.0544 µM
7 | Cc1c([C@@H](O)CN2CCC3(CCCN(c4ccc(S(C)(=O)=O)cn4)C3)CC2)ccc2c1COC2=O [Example 61, (R)-5-(1-hydroxy-2-(2-(5-(methylsulfonyl)pyridin-2-yl)-2,9-diazaspiro[5.5]undecan-9-yl)ethyl)-4-methylisobenzofuran-1(3H)-one] | 0.056 µM
8 | Cc1c([C@@H](O)CN2CCC3(CC2)CCN(c2nnc(S(C)(=O)=O)s2)C3)ccc2c1COC2=O [Example 62, 5-[(1R)-1-hydroxy-2-{2-[5-(methylsulfonyl)-1,3,4-thiadiazol-2-yl]-2,8-diazaspiro[4.5]dec-8-yl}ethyl]-4-methyl-2-benzofuran-1(3H)-one hydrochloride] | 0.21 µM
9 | CCS(=O)(=O)c1cnc(N2CCC3(CCN(C[C@H](O)c4ccc5c(c4C)COC5=O)CC3)C2)cn1 [Example 63, 5-[(1R)-2-{2-[5-(Ethylsulfonyl)pyrazin-2-yl]-2,8-diazaspiro[4.5]dec-8-yl}-1-hydroxyethyl]-4-methyl-2-benzofuran-1(3H)-one hydrochloride] | 0.0833 µM
10 | Cc1c([C@@H](O)CN2CCC3(CCN(c4ccc(S(C)(=O)=O)cn4)CC3)C2)ccc2c1COC2=O [Example 64, 5-[(1R)-1-Hydroxy-2-{8-[5-(methylsulfonyl)pyridin-2-yl]-2,8-diazaspiro[4.5]dec-2-yl}ethyl]-4-methyl-2-benzofuran-1(3H)-one hydrochloride] | 0.272 µM
11 | Cc1c([C@@H](O)CN2CCC3(CCN(c4cnc(S(C)(=O)=O)cn4)CC3)C2)ccc2c1COC2=O [Example 65, 5-[(1R)-1-Hydroxy-2-{8-[5-(methylsulfonyl)pyrazin-2-yl]-2,8-diazaspiro[4.5]dec-2-yl}ethyl]-4-methyl-2-benzofuran-1(3H)-one hydrochloride] | 0.0998 µM
12 | Cc1c([C@@H](O)CN2CCC3(CC2)CC(=O)N(c2ccc4c(c2)CCS4(=O)=O)C3)ccc2c1COC2=O [Example 66, 2-(1,1-Dioxido-2,3-dihydro-1-benzothiophen-5-yl)-8-[(2R)-2-hydroxy-2-(4-methyl-1-oxo-1,3-dihydro-2-benzofuran-5-yl)ethyl]-2,8-diazaspiro[4.5]decan-3-one hydrochloride] | 0.101 µM
13 | Cc1c([C@@H](O)CN2CCC3(CC2)CC(=O)N(c2ccc(S(C)(=O)=O)c(F)c2)C3)ccc2c1COC2=O [Example 67, 2-[3-Fluoro-4-(methylsulfonyl)phenyl]-8-[(2R)-2-hydroxy-2-(4-methyl-1-oxo-1,3-dihydro-2-benzofuran-5-yl)ethyl]-2,8-diazaspiro[4.5]decan-3-one hydrochloride] | 0.068 µM
14 | CCS(=O)(=O)c1cnc(N2CC3(CCN(C[C@H](O)c4ccc5c(c4C)COC5=O)CC3)CC2=O)cn1 [Example 68, 2-[5-(Ethylsulfonyl)pyrazin-2-yl]-8-[(2R)-2-hydroxy-2-(4-methyl-1-oxo-1,3-dihydro-2-benzofuran-5-yl)ethyl]-2,8-diazaspiro[4.5]decan-3-one hydrochloride] | 0.127 µM
15 | Cc1c([C@@H](O)CN2CCC3(CC2)CC(=O)N(c2ccc(-n4cnnn4)c(F)c2)C3)ccc2c1COC2=O [Example 69, 2-[3-Fluoro-4-(1H-tetrazol-1-yl)phenyl]-8-[(2R)-2-hydroxy-2-(4-methyl-1-oxo-1,3-dihydro-2-benzofuran-5-yl)ethyl]-2,8-diazaspiro[4.5]decan-3-one hydrochloride] | 0.173 µM
16 | Cc1c([C@@H](O)CN2CCC3(CC2)CC(=O)N(c2ccc(S(=O)(=O)C4CC4)cc2)C3)ccc2c1COC2=O [Example 70, 2-[4-(Cyclopropylsulfonyl)phenyl]-8-[(2R)-2-hydroxy-2-(4-methyl-1-oxo-1,3-dihydro-2-benzofuran-5-yl)ethyl]-2,8-diazaspiro[4.5]decan-3-one hydrochloride] | 0.248 µM
17 | Cc1c([C@@H](O)CN2CCC3(CC2)CC(=O)N(c2nnc(S(C)(=O)=O)s2)C3)ccc2c1COC2=O [Example 71, 8-[(2R)-2-Hydroxy-2-(4-methyl-1-oxo-1,3-dihydro-2-benzofuran-5-yl)ethyl]-2-[5-(methylsulfonyl)-1,3,4-thiadiazol-2-yl]-2,8-diazaspiro[4.5]decan-3-one hydrochloride] | 0.142 µM
18 | Cc1c([C@@H](O)CN2CCC3(CC2)CC(=O)N(c2ccc(-n4cnnn4)nc2)C3)ccc2c1COC2=O [Example 72, 8-[(2R)-2-Hydroxy-2-(4-methyl-1-oxo-1,3-dihydro-2-benzofuran-5-yl)ethyl]-2-[6-(1H-tetrazol-1-yl)pyridin-3-yl]-2,8-diazaspiro[4.5]decan-3-one hydrochloride] | 0.1 µM
19 | Cc1nc(N2CC3(CCN(C[C@H](O)c4ccc5c(c4C)COC5=O)CC3)CC2=O)ccc1-n1cnnn1 [Example 73, 8-[(2R)-2-Hydroxy-2-(4-methyl-1-oxo-1,3-dihydro-2-benzofuran-5-yl)ethyl]-2-[6-methyl-5-(1H-tetrazol-1-yl)pyridin-2-yl]-2,8-diazaspiro[4.5]decan-3-one hydrochloride] | 0.359 µM
20 | Cc1c([C@@H](O)CN2CCC3(CC2)CC(=O)N(c2ccc(S(C)(=O)=O)cc2)C3)ccc2c1COC2=O [Example 74, 8-[(2R)-2-Hydroxy-2-(4-methyl-1-oxo-1,3-dihydro-2-benzofuran-5-yl)ethyl]-2-[4-(methylsulfonyl)phenyl]-2,8-diazaspiro[4.5]decan-3-one hydrochloride] | 0.0822 µM
21 | Cc1c([C@@H](O)CN2CCC3(CC2)CCN(c2ccc(S(C)(=O)=O)cc2)C3=O)ccc2c1COC2=O [Example 75, 8-[(2R)-2Hydroxy-2-(4-methyl-1-oxo-1,3-dihydro-2-benzofuran-5-yl)ethyl]-2-[4-(methylsulfonyl)phenyl]-2,8-diazaspiro[4.5]decan-1-one hydrochloride] | 0.0852 µM
22 | Cc1c([C@@H](O)CN2CCC3(CC2)CCN(c2nnc(S(C)(=O)=O)s2)C3=O)ccc2c1COC2=O [Example 76, 8-[(2R)-2-Hydroxy-2-(4-methyl-1-oxo-1,3-dihydro-2-benzofuran-5-yl)ethyl]-2-[5-(methylsulfonyl)-1,3,4-thiadiazol-2-yl]-2,8-diazaspiro[4.5]decan-1-one hydrochloride] | 0.1 µM
23 | CN[C@@H](CN1CCC2(CC1)CCN(c1ccc(C#N)cn1)C2)c1ccc2c(c1C)COC2=O [Example 77, (R)-6-(8-(2-(4-methyl-1-oxo-1,3-dihydroisobenzofuran-5-yl)-2-(methylamino)ethyl)-2,8-diazaspiro[4.5]decan-2-yl)nicotinonitrile] | 0.0613 µM
